Measured values published in patent publication EP0070084A2, “Imidazoline derivatives” (BEECHAM GROUP PLC, priority 1981, dated 1983).
Structures can show the parent of a compound that is named as a salt. Where two headings read alike, the source gives them in different places.

How the values were obtained:
neonatal mice = assay: Sedative activity, observation of orally dosed mice; format: in vivo; conditions: 6 neonatal mice, at 1 mg/kg and at 10 mg/kg, observed for 2 hours versus control mice
Method: m-amino Clonidine was administered orally to 6 neonatal mice at 1 mg/kg and at 10 mg/kgwhichwere observed for 2 hours in comparison with control mice.

piglets = format: in vivo; conditions: groups of 2 piglets; for MEAN SCOUR SCORE ± SEM: score 0-3
[1] = 0.1 mg/kg p.o., duration of test 6 h
[2] = 0.1 mg/kg p.o., duration of test 12 h
[3] = 0.2 mg/kg p.o., duration of test 6 h

| SMILES | sedation (neonatal mice) | o/o INHIBITION OF SCOUR (piglets; [1]) [o/o] | MEAN SCOUR SCORE ± SEM (piglets; [1]) | o/o INHIBITION OF SCOUR (piglets; [2]) [o/o] | MEAN SCOUR SCORE ± SEM (piglets; [2]) | o/o INHIBITION OF SCOUR (piglets; [3]) [o/o] | MEAN SCOUR SCORE ± SEM (piglets; [3]) | MEAN SCOUR SCORE ± SEM (piglets; 0.2 mg/kg p.o., duration of test 12 h) | o/o INHIBITION OF SCOUR (piglets; 0.2 mg/kg p.o., duration of test 12 h, P 0.05) [o/o] | MEAN SCOUR SCORE ± SEM (piglets; 1 mg/kg p.o., duration of test 6 h) | o/o INHIBITION OF SCOUR (piglets; 1 mg/kg p.o., duration of test 6 h, P 0.01) [o/o] | MEAN SCOUR SCORE ± SEM (piglets; 1 mg/kg p.o., duration of test 12 h) | o/o INHIBITION OF SCOUR (piglets; 1 mg/kg p.o., duration of test 12 h, P 0.05) [o/o] |
| --- | --- | --- | --- | --- | --- | --- | --- | --- | --- | --- | --- | --- | --- |
| Nc1ccc(Cl)c(N=C2NCCN2)c1Cl [Example 3, 2-(3-amino-2,6-dichlorophenylimino) imidazolidine] | marked sedation |  |  |  |  |  |  |  |  |  |  |  |  |
| Clc1cc(NCc2ccccc2)cc(Cl)c1N=C1NCCN1 [Example 4, 2-(4-Eenzylamino-2,6-dichlorophenylimino)imidazolidine_ hydrochloride] |  | 15 | 2.3 ± 0.5 | 10 | 1.9 ± 0.2 | 41 | 1.6 ± 0.1 | 1.2 ± 0.2 | 43 | 0.4 ± 0.4 | 85 | 1.1 ± 0.2 | 48 |
